Laboratory results taken from paper PMC6920997, “Total Phenolic and Flavonoid Content and Biological Activities of Extracts and Isolated Compounds of Cytisus villosus Pourr” (Biomolecules, 2019).
In brackets after ≈: the same amount, converted by molar mass. Read-outs that look alike come from different tables or passages of the source.

How the values were obtained:
NF-κB = assay: Reporter gene assay for the inhibition of NF-κB; format: cell-based; settings: PMA-treated cells, luciferase reporter; NA = no activity at 25 µg/mL (pure compounds) or 100 µg/mL (extracts); read-out: Inhibition of NF-kB IC50
Method: Reporter gene assay for the inhibition of NF-κB Activity was performed as described earlier. In brief, cells transfected with NF-κB luciferase plasmid construct were plated in 96-well plates at a density of 1.25 × 10^5 cells/well. After 24 h, cells were treated with the test compounds and, after incubating for 30 min, phorbol 12-myristate 13-acetate (PMA) (Sigma-Aldrich, Burlington MA, USA) (70 ng/mL) was added and further incubated for 6−8 h. Luciferase activity was measured as described above. Percent decrease in luciferase activity was calculated relative to the vehicle control. Parthenolide (Sigma-Aldrich, Burlington MA, USA) was used as a positive control.

iNOS = assay: Inhibition of iNOS (intracellular NO production) in RAW 264.7 macrophages; format: cell-based; settings: Mus musculus, RAW264.7; RAW 264.7 cells; NA = no activity at 25 µg/mL (pure compounds) or 100 µg/mL (extracts)
Method: The extracts and isolated compounds of C. villosus were evaluated in terms of their interaction with cellular targets related to inflammation and metabolic disorders, such as iNOS and NF-κB. The inhibition of intracellular NO production as a result of iNOS activity was assayed in mouse macrophages (RAW 264.7cells). Cytotoxicity of test samples to macrophages was also determined in parallel to check if the inhibition of iNOS was due to cytotoxic effects.

Staphylococcus aureus = assay: Antibacterial assay S. aureus; format: cell-based; settings: pure compounds
Method: (§1) Extracts and pure compounds were tested for their antimicrobial activity against Staphylococcus aureus, methicillin-resistant S. aureus (MRSA), Escherichia coli, Pseudomonas aeruginosa, and Mycobacterium intracellulare. The antifungal activities were evaluated against a panel of pathogenic fungi, including Candida albicans, C. glabrata, C. krusei, Aspergillus fumigatus, and Cryptococcus neoformans, associated with opportunistic infections.

Pseudomonas aeruginosa = assay: Antibacterial assay P. aeruginosa; format: cell-based; settings: for IC50: pure compounds
Method: as §1

[1] = tested on: Trypanosoma brucei trypomastigotes; assay: Antitrypanosomal Alamar Blue assay; format: cell-based; settings: for IC50 / IC90: Trypanosoma brucei, Table 4; for IC50: read-out: T. brucei IC50; for IC90: read-out: T. brucei IC90
Description: (§2) The in vitro antileishmanial and antitrypanosomal assays were done on cell cultures of L. donovani promastigotes, axenic amastigotes, THP1-amastigotes, and Trypanosoma brucei trypomastigotes by Alamar Blue assays. The conditions for seeding the THP1 cells, exposure to the test samples, and evaluation of cytotoxicity were the same as described in parasite-rescue and transformation assay. IC50 and IC90 values were computed from the dose response curves using XLfit software (XLfit 5.3.1, IDBS analytical, Boston MA, USA). DFMO (difluoromethylornithine) was used as the positive control. The antiprotozoal activity of C. villosus extracts and isolated compounds were evaluated in vitro against L. donovani promastigotes, axenic amastigotes, and intracellular amastigotes in THP1 cells. The extracts and some isolated compounds were also evaluated against T. brucei trypomastigote forms. All the extracts and compounds were simultaneously tested against THP1 cell for determination of general cytotoxicity. The extracts and isolated compounds were also evaluated for their antimalarial activity against chloroquine-sensitive (D6, Sierra Leone) and chloroquine-resistant strains (W2, Indochina) strains of Plasmodium falciparum. Furthermore, they were tested for cytotoxicity against the Vero cell line.

THP1 cells = assay: THP1 cytotoxicity; format: cell-based
Description: as §2

THP1 cytotoxicity = format: cell-based; settings: human
Description: as §2

Cryptococcus neoformans = assay: Antifungal assay C. neoformans; format: cell-based; settings: for IC50: pure compounds
Method: as §1

[2] = tested on: L. donovani promastigotes; assay: Antileishmanial Alamar Blue assay, promastigotes; format: cell-based; settings: Leishmania donovani; for IC50: read-out: L. donovani Promastigote IC50; for IC90: read-out: L. donovani Promastigote IC90
Description: as §2

P. falciparum (D6 Clone) = assay: Antimalarial assay, chloroquine-sensitive D6 clone; format: cell-based, Plasmodium falciparum; settings: for SI (first SI column of Table 7, presumably D6): selectivity index = IC50 for cytotoxicity/IC50 for antimalarial activity
Description: as §2

Candida albicans = assay: Antifungal assay C. albicans; format: cell-based; settings: for IC50: pure compounds
Method: as §1

[3] = tested on: L. donovani intracellular amastigotes in THP1 cells; assay: Antileishmanial assay, intracellular amastigotes in THP1 cells; format: cell-based; settings: Leishmania donovani; for IC50: THP-1, read-out: L. donovani Amastigote/THP1 IC50; for IC90: THP-1, read-out: L. donovani Amastigote/THP1 IC90
Description: as §2

Escherichia coli = assay: Antibacterial assay E. coli; format: cell-based; settings: for IC50: pure compounds
Method: as §1

P. falciparum (W2 Clone) = assay: Antimalarial assay, chloroquine-resistant W2 clone; format: cell-based, Plasmodium falciparum; settings: for SI (second SI column of Table 7, presumably W2): selectivity index = IC50 for cytotoxicity/IC50 for antimalarial activity
Description: as §2

[4] = Cytotoxicity against Vero cell line (antimalarial counterscreen); format: cell-based; settings: African green monkey, column head does not name the cells, read-out: IC50 (third IC50 column of Table 7, presumably Vero cytotoxicity)
Description: as §2

[5] = tested on: L. donovani axenic amastigotes; assay: Antileishmanial Alamar Blue assay, axenic amastigotes; format: cell-based; settings: Leishmania donovani; for IC50: read-out: L. donovani Amastigote IC50; for IC90: read-out: L. donovani Amastigote IC90
Description: as §2

[6] = Cytotoxicity assay (neutral red) LLC-PK1; format: cell-based; settings: pig, LLC-PK1 cells (noncancerous kidney cells), NC = Not cytotoxic
Method: (§3) Each assay was performed in 96-well tissue culture-treated microplates. […] All cell lines were obtained from the American Type Culture Collection (ATCC, Rockville, MD, USA). Each assay was performed in 96-well tissue culture-treated microplates. Cells were seeded at a density of 25,000 cells/well and incubated for 24 h. Samples at different concentrations were added and cells were again incubated for 48 h. At the end of incubation, the cell viability was determined using neutral red dye according to a modification of the procedure of Borenfreund et al.. IC50 values were determined from dose−response curves of percent growth inhibition against test concentrations. Doxorubicin was used as a positive control, while DMSO was used as the negative (vehicle) control.

[7] = Cytotoxicity assay (neutral red) BT-549; format: cell-based; settings: human, BT-549 cells, NA = No activity at 100 μM
Method: as §3

[8] = Cytotoxicity assay (neutral red) SK-OV-3; format: cell-based; settings: human, SK-OV-3 cells, NA = No activity at 100 μM
Method: as §3

[9] = Cytotoxicity assay (neutral red) KB; format: cell-based; settings: human, KB cells, NA = No activity at 100 μM
Method: as §3

[10] = Cytotoxicity assay (neutral red) SK-MEL; format: cell-based; settings: human, SK-MEL cells, NA = No activity at 100 μM
Method: as §3

HepG2 cells = assay: Cellular antioxidant activity (CAA) assay; format: cell-based
Method: The cellular antioxidant activity was measured in HepG2 cells as described by Wolfe and Rui. The antioxidant activity was expressed in terms of CAA units. The area under the curve (AUC) of fluorescence versus time plot was used to calculate CAA units as described by Wolfe and Rui.

[11] = tested on: methicillin-resistant S. aureus (MRSA); assay: Antibacterial assay MRSA; format: cell-based; settings: Staphylococcus aureus
Method: as §1

Aspergillus fumigatus = assay: Antifungal assay A. fumigatus; format: cell-based
Method: as §1

[12] = THP1 cells, read-out: THP1 Cytotoxicity IC50

IC50 (iNOS) [µg/mL]	IC50 (Staphylococcus aureus) [µg/mL]	IC50 (Pseudomonas aeruginosa) [µg/mL]	IC50 [1] [µM]	IC90 [1] [µM]	IC50 (Cryptococcus neoformans) [µg/mL]	IC50 [2] [µM]	IC90 [2] [µM]	IC50 (Candida albicans) [µg/mL]	IC50 [3] [µM]	IC90 [3] [µM]	IC50 (Escherichia coli) [µg/mL]	IC50 [5] [µM]	IC90 [5] [µM]	SMILES	THP1 Cytotoxicity C90 (THP1 cells) [µM]	IC50 (THP1 cytotoxicity; [12]) [µM]	SI (first SI column of Table 7, presumably D6) (P. falciparum (D6 Clone))	SI (second SI column of Table 7, presumably W2) (P. falciparum (W2 Clone))	other results
0.2 (≈ 0.805 µM)	–	–	–	–	–	–	–	–	–	–	–	–	–	C=C1C(=O)O[C@H]2[C@H]1CC/C(C)=C/CC[C@@]1(C)O[C@@H]21 [Parthenolide, reference compound]	–	–	–	–	IC50 (NF-κB): 1.63 µg/mL (≈ 6.56 µM)
20 (≈ 48 µM)	> 20	> 20	> 10	> 10	> 20	> 10	> 10	> 20	> 10	> 10	> 20	> 10	> 10	O=c1cc(-c2ccccc2)oc2cc(O[C@@H]3O[C@H](CO)[C@@H](O)[C@H](O)[C@H]3O)cc(O)c12 [Compound 3, chrysin-7-O-β-D-glucopyranoside]	>10	> 10	1	1	IC50 ([4]; Vero cells): > 4.76 µg/mL
–	–	–	–	–	–	–	–	–	–	–	–	–	–	CCN(CC)CCCC(C)Nc1ccnc2cc(Cl)ccc12 (stereo not shown) [CQ, Chloroquine, reference compound]	–	–	>9	>2.1	inhibition at 0.0793 µg/mL (P. falciparum (D6 Clone); Plasmodium falciparum, D6, read-out: %Inhibition P. falciparum (D6 Clone)): 100%; IC50 (P. falciparum (D6 Clone); Plasmodium falciparum, read-out: IC50): < 0.026 µg/mL; IC50 (P. falciparum (W2 Clone); Plasmodium falciparum, W2, read-out: IC50 (second IC50 column of Table 7, presumably P. falciparum W2)): 0.116 µg/mL (≈ 0.363 µM); IC50 [4]: > 0.238 µg/mL
–	–	–	–	–	–	–	–	–	–	–	–	–	–	COc1cccc2c1C(=O)c1c(O)c3c(c(O)c1C2=O)C[C@@](O)(C(=O)CO)C[C@@H]3O[C@H]1C[C@H](N)[C@H](O)[C@H](C)O1 [doxorubicin, Doxorubicin]	–	–	–	–	IC50 at 48 h [6]: 1.2 µg/mL (≈ 2.21 µM); IC50 at 48 h [7]: 0.9 µg/mL (≈ 1.66 µM); IC50 at 48 h [8]: 2 µg/mL (≈ 3.68 µM); IC50 at 48 h [9]: 1.3 µg/mL (≈ 2.39 µM); IC50 at 48 h [10]: 0.8 µg/mL (≈ 1.47 µM)
–	> 20	> 20	> 10	> 10	> 20	> 10	> 10	> 20	> 10	> 10	> 20	> 10	> 10	C[C@@H]1O[C@@H](O[C@@H]2[C@@H](O)[C@H](O)[C@@H](CO)O[C@H]2c2c(O)cc(O)c3c(=O)cc(-c4ccc(O)c(O)c4)oc23)[C@H](O)[C@H](O)[C@H]1O [Compound 4, 2″-O-α-L-rhamnosylorientin]	>10	> 10	–	–	T. brucei IC50 ([1]; as given in the text): didn’t show an effect; % Decrease in Oxidative Stress (HepG2 cells; concentration 250 µg/mL): 28%; % Decrease in Oxidative Stress (HepG2 cells; concentration 500 µg/mL): 29%; % Decrease in Oxidative Stress (HepG2 cells; concentration 1000 µg/mL): 36%; IC50 ([11]; pure compounds): > 20 µg/mL; IC50 (Aspergillus fumigatus; pure compounds): > 20 µg/mL
–	–	–	–	–	–	0.136	0.215	–	0.188	0.421	–	0.211	0.374	C[C@@H]1[C@H](O)[C@@H](C)/C=C/C=C/C=C/C=C/C=C/C=C/C=C/[C@H](O[C@@H]2O[C@H](C)[C@@H](O)[C@H](N)[C@@H]2O)C[C@@H]2O[C@](O)(C[C@@H](O)C[C@@H](O)[C@H](O)CC[C@@H](O)C[C@@H](O)CC(=O)O[C@H]1C)C[C@H](O)[C@H]2C(=O)O [Amphotericin B, reference compound]	–	–	–	–	inhibition at 50 µg/mL (Pseudomonas aeruginosa; Concentration: 50 μg/mL, <50 considered inactive, read-out: % Growth Inhibition P. aeruginosa): 0%; THP1 Cytotoxicity C90 (THP1 cells; human): >2 µM; IC50 (THP1 cytotoxicity): > 2 µM; inhibition at 50 µg/mL (Cryptococcus neoformans; Concentration: 50 μg/mL, <50 considered inactive, read-out: % Growth Inhibition C. neoformans): 100%; inhibition at 50 µg/mL ([11]; Concentration: 50 μg/mL, <50 considered inactive, read-out: % Growth Inhibition MRSA): 1%; inhibition at 50 µg/mL (Aspergillus fumigatus; Concentration: 50 μg/mL, <50 considered inactive, read-out: % Growth Inhibition A. fumigatus): 93%; inhibition at 50 µg/mL (Candida albicans; Concentration: 50 μg/mL, <50 considered inactive, read-out: % Growth Inhibition C. albicans): 100%; inhibition at 50 µg/mL (Escherichia coli; Concentration: 50 μg/mL, <50 considered inactive, read-out: % Growth Inhibition E. coli): 0%
